Measurements published in patent US20240262812A1, “N-SUBSTITUTED PHENYLSULFONAMIDE COMPOUND AND USE THEREOF” (Shanghai Leado Pharmatech Co., Ltd., priority 2021, published 2024).

Experiments:
chemokine receptor CCR9 = target: T1, chemokine receptor CCR9 (Homo sapiens, UniProt P51686); assay: CCR9 antagonistic activity, calcium flow (Fluo-4, FlexStation), CCL25 agonist; assay type: cell-based; details: antagonistic mode, CCL25 150 nM; for inhibition at 100 µM: read-out: Inhibition rate (%) (100 μM)
T1 construct: expressed in transfected cells
T1 sequence (P51686 1-369): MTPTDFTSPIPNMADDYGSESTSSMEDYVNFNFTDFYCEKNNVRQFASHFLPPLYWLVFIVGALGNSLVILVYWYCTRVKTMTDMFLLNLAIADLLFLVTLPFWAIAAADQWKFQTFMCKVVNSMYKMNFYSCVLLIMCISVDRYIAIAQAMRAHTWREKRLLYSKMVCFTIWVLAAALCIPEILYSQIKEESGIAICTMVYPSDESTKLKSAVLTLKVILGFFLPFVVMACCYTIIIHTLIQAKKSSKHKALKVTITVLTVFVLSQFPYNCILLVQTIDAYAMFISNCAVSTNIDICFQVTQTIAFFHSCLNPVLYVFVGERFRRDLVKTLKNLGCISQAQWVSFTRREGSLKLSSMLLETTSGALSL

[1] = test system: DSS induced inflammatory colitis in C57BL/6 mice; assay: DSS induced inflammatory colitis model in C57BL/6 mice; assay type: in vivo, mouse; details: 10 mg/kg oral once a day, day 0 to day 7; for DAI score: FIG. 3; for length of the colorectum / weight of the colorectum: FIG. 4; for level of colorectal inflammatory factor IL-10 (ELISA) / level of colorectal inflammatory factor TNF-α (ELISA): FIG. 5
Method: The therapeutic effect of compounds prepared in some examples of the present invention on DSS (dextran sulfate sodium) induced inflammatory colitis in C57BL/6 mice (corresponding to ulcerative colitis) was investigated.
• Animal species and strains: C57BL/6 mice • Administration record: No administration history • Gender and weight: Female, about 18-20 g • Breeding party/supplier: Shanghai SLAC Laboratory Animal Co., Ltd • Adaptation period: 7 days • Room: SPF Rooms • Indoor temperature: 20-26° C. • Indoor relative humidity: 40-70% • Lighting: Fluorescent lighting, 12-hour illumination (08:00-20:00) and 12 hour no illumination • Animal feeding: 2-5 mice per cage (same administration group) • Food: Unlimited access to feed (disinfected by irradiation, Shanghai SLAC Laboratory Animal Co., Ltd, China) • Water: Unlimited access to drinking water (tap water purified through ultra-pure water filtration system)
A total of 80 C57BL/6 mice were purchased from Shanghai SLAC Laboratory Animal Co., Ltd, of which 10 were used as backup animals to select animals with suitable weight range included in the groups. All backup animals are not subjected to any administration or modeling procedures and will be euthanized uniformly at the end of the experiment.
70 animals were selected on Day 3 and randomly grouped based on animal weight using BioBook software to ensure that the weight values of each group of animals were similar to reduce bias.
3.1 An appropriate amount of DSS powder was dissolved in high-pressure sterilized drinking water solvent and a 3% DSS solution was prepared.
3.2 Induction of Colitis: On day 3, 70 mice were randomly divided into 7 groups according to Table 7. From day 0 to day 4, mice in groups 2 to 7 drank 3% DSS aqueous solution for 5 days, followed by drank normal water ad libitum (from day 5 to before autopsy). The day of initial administration of DSS drinking water was counted as day 0. DSS aqueous solution was wrapped in opaque dark bags to ensure light avoidance. DSS aqueous solution was replaced every 2 days.
3.3. Dosage regimen: See Table 7.
Changes in body weight, feces, and bleeding of all groups of mice were record daily. Three items were scored according to Table 8 below, and the scores were added together to form the daily disease activity index (DAI) score.
After blood collection, the animals were euthanized by inhaling excessive CO2 and dislocation of cervical vertebra. Then the abdominal cavity was cut open and the colorectum was taken out. After removing the tissue around the colon, the longitudinal length from the ileocecal valve to the anus was measured. Afterwards, the colorectum was cut open and the contents of feces were scored. Finally, the intestinal contents were cleaned, and the entire colon was photographed and weighed.
Commercially available ELISA analysis kits were used to analyze the colorectal inflammation factors TNF-α and IL-10 in each group.
The health status of animals and their comprehensive response to DSS and drugs were observed every day. Any abnormal appearance or behavior other than those related to the development of the disease was recorded in detail in the Pharmalegacy Biological Experimental Observation Form.
The data was calculated as mean±standard error. Statistical analysis was performed using Graphpad Prism and SPSS software. The specific data is presented in the form of charts. When P<0.05, it is considered statistically significant.

Row | SMILES | inhibition at 100 µM (chemokine receptor CCR9) [%] | IC50 (chemokine receptor CCR9) [µM] | DAI score [1] | length of the colorectum [1] | weight of the colorectum [1] | level of colorectal inflammatory factor IL-10 (ELISA) [1] | level of colorectal inflammatory factor TNF-α (ELISA) [1]
1 | CNCc1ccc(NS(=O)(=O)c2ccsc2)c(-c2ccco2)c1 [IA-30] | 3 | > 100 | significantly reduce | increase | decrease | significantly reduce | significantly reduce
2 | CNCc1ccc(-c2nccs2)c(NS(=O)(=O)c2ccccc2)c1 [IA-51, N-(5-((methylamino)methyl)-2-(thiazol-2-yl)phenyl)benzenesulfonamide] | 3 | > 100 | significantly reduce | increase | decrease | significantly reduce | significantly reduce
3 | CNCc1ccc(-c2cc[nH]n2)c(NS(=O)(=O)c2ccccc2)c1 [IA-55, N-(5-((methylamino)methyl)-2-(1H-pyrazol-3-yl)phenyl)benzenesulfonamide] | 8 | > 100 | significantly reduce | increase | decrease | significantly reduce | significantly reduce
4 | NCc1ccc(NS(=O)(=O)c2ccsc2)c(-c2ccco2)c1 [ID-5] | 8 | > 100 | significantly reduce | increase | decrease | significantly reduce | significantly reduce
